Experimental data reported in ChEMBL document CHEMBL2396541, “Synthesis and in vitro evaluation of glycosyl derivatives of luteinizing hormone-releasing hormone (LHRH)” (Bioorg Med Chem, 2013).

What was measured:
Caco-2 = assay: Prodrug activation in human Caco2 cell homogenates assessed as LHRH release after 2 hrs; type: cell-based; conditions: caco-2, 2 h
[1] = Half life in human Caco2 cell homogenates at 200 uM by LC-MS analysis; type: ADME, cell-based; conditions: Caco-2 cell homogenates
[2] = Apparent permeability across human Caco2 cells at 200 uM up to 120 mins by LC-MS analysis; type: ADME, cell-based; conditions: Caco-2
[3] = Half life in human plasma; type: ADME, cell-free
[4] = Half life in human; type: ADME, organism-based; conditions: in vivo

Q: With `CC(C)C[C@H](NC(=O)CNC(=O)[C@H](Cc1ccc(O)cc1)NC(=O)[C@H](CO)NC(=O)[C@H](Cc1c[nH]c2ccccc12)NC(=O)[C@H](Cc1cnc[nH]1)NC(=O)[C@H](CCC(=O)O)NC(=O)CCC(=O)N[C@@H]1O[C@H](CO)[C@@H](O[C@@H]2O[C@H](CO)[C@H](O)[C@H](O)[C@H]2O)[C@H](O)[C@H]1O)C(=O)N[C@@H](CCCNC(=N)N)C(=O)N1CCC[C@H]1C(=O)NCC(N)=O` as the compound, how does the Drug metabolism (Caco-2) read?
A: Not Active

Q: What about the half-life at 200 µM [1] of the same compound?
A: 77 min

Q: What about the Papp at 2 h, 200 µM [2] of the same compound?
A: 2.87 ×10⁻⁶ cm/s

Q: Which results are given for `CC(C)C[C@H](NC(=O)CNC(=O)[C@H](Cc1ccc(O)cc1)NC(=O)[C@H](CO)NC(=O)[C@H](Cc1c[nH]c2ccccc12)NC(=O)[C@H](Cc1cnc[nH]1)NC(=O)[C@H](CCC(N)=O)NC(=O)CCC(=O)N[C@@H]1O[C@H](CO)[C@@H](O[C@@H]2O[C@H](CO)[C@H](O)[C@H](O)[C@H]2O)[C@H](O)[C@H]1O)C(=O)N[C@@H](CCCNC(=N)N)C(=O)N1CCC[C@H]1C(=O)NCC(N)=O`?
A: Drug metabolism (Caco-2): Not Active; half-life at 200 µM [1]: 133 min; Papp at 2 h, 200 µM [2]: 0.76 ×10⁻⁶ cm/s

Q: For `CC(C)C[C@H](NC(=O)CNC(=O)[C@H](Cc1ccc(O)cc1)NC(=O)[C@H](CO)NC(=O)[C@H](Cc1c[nH]c2ccccc12)NC(=O)[C@H](Cc1cnc[nH]1)NC(=O)[C@@H](N)CCC(=O)O)C(=O)N[C@@H](CCCNC(=N)N)C(=O)N1CCC[C@H]1C(=O)NCC(N)=O`, which half-life at 200 µM [1] is on record?
A: 30.4 min

Q: For `CC(C)C[C@H](NC(=O)CNC(=O)[C@H](Cc1ccc(O)cc1)NC(=O)[C@H](CO)NC(=O)[C@H](Cc1c[nH]c2ccccc12)NC(=O)[C@H](Cc1cnc[nH]1)NC(=O)[C@H](CCC(=O)O)NC(=O)CCC(=O)N[C@@H]1O[C@H](CO)[C@@H](O)[C@H](O)[C@H]1O)C(=O)N[C@@H](CCCNC(=N)N)C(=O)N1CCC[C@H]1C(=O)NCC(N)=O`, which Drug metabolism (Caco-2) is on record?
A: Not Active

Q: And the half-life at 200 µM [1]?
A: 56.7 min

Q: And the Papp at 2 h, 200 µM [2]?
A: 2.65 ×10⁻⁶ cm/s

Q: For `CC(C)C[C@H](NC(=O)CNC(=O)[C@H](Cc1ccc(O)cc1)NC(=O)[C@H](CO)NC(=O)[C@H](Cc1c[nH]c2ccccc12)NC(=O)[C@H](Cc1cnc[nH]1)NC(=O)[C@H](CCC(N)=O)NC(=O)CCC(=O)N[C@@H]1O[C@H](CO)[C@@H](O)[C@H](O)[C@H]1O)C(=O)N[C@@H](CCCNC(=N)N)C(=O)N1CCC[C@H]1C(=O)NCC(N)=O`, which Drug metabolism (Caco-2) is on record?
A: Not Active

Q: And the half-life at 200 µM [1]?
A: 73.5 min

Q: What about the Papp at 2 h, 200 µM [2] of the same compound?
A: 2.31 ×10⁻⁶ cm/s

Q: For `CC(C)C[C@H](NC(=O)CNC(=O)[C@H](Cc1ccc(O)cc1)NC(=O)[C@H](CO)NC(=O)[C@H](Cc1c[nH]c2ccccc12)NC(=O)[C@H](Cc1cnc[nH]1)NC(=O)[C@H](CCC(=O)O)NC(=O)CCC(=O)N[C@@H]1O[C@H](CO)[C@H](O)[C@H](O)[C@H]1O)C(=O)N[C@@H](CCCNC(=N)N)C(=O)N1CCC[C@H]1C(=O)NCC(N)=O`, which Drug metabolism (Caco-2) is on record?
A: Not Active

Q: And the half-life at 200 µM [1]?
A: 51 min

Q: What about the Papp at 2 h, 200 µM [2] of the same compound?
A: 1.08 ×10⁻⁶ cm/s

Q: Which Drug metabolism (Caco-2) does the source give for `CC(C)C[C@H](NC(=O)CNC(=O)[C@H](Cc1ccc(O)cc1)NC(=O)[C@H](CO)NC(=O)[C@H](Cc1c[nH]c2ccccc12)NC(=O)[C@H](Cc1cnc[nH]1)NC(=O)[C@H](CCC(N)=O)NC(=O)CCC(=O)N[C@@H]1O[C@H](CO)[C@H](O)[C@H](O)[C@H]1O)C(=O)N[C@@H](CCCNC(=N)N)C(=O)N1CCC[C@H]1C(=O)NCC(N)=O` here?
A: Not Active

Q: And the half-life at 200 µM [1]?
A: 92.2 min

Q: What about the Papp at 2 h, 200 µM [2] of the same compound?
A: 1.62 ×10⁻⁶ cm/s

Q: With `CC(C)C[C@H](NC(=O)CNC(=O)[C@H](Cc1ccc(O)cc1)NC(=O)[C@H](CO)NC(=O)[C@H](Cc1c[nH]c2ccccc12)NC(=O)[C@H](Cc1cnc[nH]1)NC(=O)[C@@H]1CCC(=O)N1)C(=O)N[C@@H](CCCNC(=N)N)C(=O)N1CCC[C@H]1C(=O)NCC(N)=O` [GONADORELIN] as the compound, how does the half-life at 200 µM [1] read?
A: 32.6 min

Q: And the Papp at 2 h, 200 µM [2]?
A: 0.398 ×10⁻⁶ cm/s

Q: And the half-life [3]?
A: 3 min

Q: Which half-life at 200 µM [1] does the source give for `CC(C)C[C@H](NC(=O)[C@@H](Cc1c[nH]c2ccccc12)NC(=O)[C@H](Cc1ccc(O)cc1)NC(=O)[C@H](CO)NC(=O)[C@H](Cc1c[nH]c2ccccc12)NC(=O)[C@H](Cc1c[nH]cn1)NC(=O)[C@@H]1CCC(=O)N1)C(=O)N[C@@H](CCCNC(=N)N)C(=O)N1CCC[C@H]1C(=O)NCC(N)=O` [TRIPTORELIN] here?
A: 186 min

Q: With `CC(C)C[C@H](NC(=O)CNC(=O)[C@H](Cc1ccc(O)cc1)NC(=O)[C@H](CO)NC(=O)[C@H](Cc1c[nH]c2ccccc12)NC(=O)[C@H](Cc1cnc[nH]1)NC(=O)[C@@H](N)CCC(=O)O)C(=O)N[C@@H](CCCNC(=N)N)C(=O)N1CCC[C@H]1C(=O)NCC(=O)N[C@@H]1O[C@H](C(N)=O)[C@@H](O)[C@H](O)[C@H]1O` as the compound, how does the half-life at 200 µM [1] read?
A: 28.4 min

Q: With `CC(C)C[C@H](NC(=O)[C@@H](Cc1c[nH]c2ccccc12)NC(=O)[C@H](Cc1ccc(O)cc1)NC(=O)[C@H](CO)NC(=O)[C@H](Cc1c[nH]c2ccccc12)NC(=O)[C@H](Cc1cnc[nH]1)NC(=O)[C@H](CCC(N)=O)NC(=O)CCC(=O)N[C@@H]1O[C@H](CO)[C@@H](O[C@@H]2O[C@H](CO)[C@H](O)[C@H](O)[C@H]2O)[C@H](O)[C@H]1O)C(=O)N[C@@H](CCCNC(=N)N)C(=O)N1CCC[C@H]1C(=O)NCC(N)=O` as the compound, how does the half-life at 200 µM [1] read?
A: 133 min

Q: What about the half-life [4] of the same compound?
A: 3 min
